{"source": "ChEMBL document CHEMBL4732091", "about": "“Design, synthesis and biological evaluation of novel thiosemicarbazone-indole derivatives targeting prostate cancer cells” (Eur J Med Chem, 2021)", "key": {"PC-3 [1]": {"tested_on": "PC-3", "assay": "Induction of ROS generation in human PC-3 cells assessed as increase in intracellular ROS level measured after 48 hrs by DCFH-DA staining based flowcytometry method", "format": "functional, cell-based", "details": "dose 25-100 nM"}, "PC-3 [2]": {"tested_on": "PC-3", "assay": "Antiproliferative activity against human PC-3 cells assessed as inhibition of cell proliferation measured after 72 hrs by MTT assay", "format": "functional, cell-based", "details": "PC-3, 72 h"}, "PC-3 [3]": {"tested_on": "PC-3", "assay": "Induction of apoptosis in human PC-3 cells assessed as increase in PARP expression at 25 to 100 nM measured by Western blot assay", "format": "functional, cell-based", "details": "dose 25-100 nM"}, "PC-3 [4]": {"tested_on": "PC-3", "assay": "Antitumour activity against human PC-3 cells xenografted in BALB/c-NU mouse assessed as reduction in tumour growth at 12.5 mg/kg, IG qd measured after 21 days relative to control", "format": "functional", "set-up": "scale not given: the % may be the effect or the level left", "details": "time 21 day"}, "PC-3 [5]": {"tested_on": "PC-3", "assay": "Induction of apoptosis in human PC-3 cells assessed as viable cells at 25 nM measured after 72 hrs by Annexin V-FITC/propidium iodide staining based flow cytometry method (reference value: 97.2 %)", "format": "functional", "details": "read-out: Activity"}, "PC-3 [6]": {"tested_on": "PC-3", "assay": "Induction of ROS generation in human PC-3 cells assessed as increase in intracellular ROS level at 250 nM pretreated with NAC followed by compound treatment measured after 48 hrs by DCFH-DA staining based flowcytometry method", "format": "functional, cell-based"}, "DU-145 [7]": {"tested_on": "DU-145", "assay": "Activation of MAPK signaling in human DU-145 cells assessed as increase in phosphorylated JNK (Thr 183/Tyr 185) at 125 to 500 nM measured by Western blot assay", "format": "cell-based", "details": "filed as activator, dose 125-500 nM"}, "DU-145 [8]": {"tested_on": "DU-145", "assay": "Antiproliferative activity against human DU-145 cells assessed as reduction in colony formation at 0.25 to 1 uM measured after 6 days by crystal violet staining based colony assay", "format": "functional, cell-based", "details": "dose 0.25-1 µM, time 6.0 day"}, "PC-3 [9]": {"tested_on": "PC-3", "assay": "Induction of apoptosis in human PC-3 cells assessed as necrotic cells at 100 nM measured after 72 hrs by Annexin V-FITC/propidium iodide staining based flow cytometry method (reference value: 1.2 %)", "format": "functional"}, "[10]": {"assay": "Toxicity in C57BL/6 mouse assessed as effect on spleen at 2 mg/kg, IG measured after 2 weeks by hematoxylin and eosin staining based imaging analysis", "format": "organism-based", "details": "in vivo, po, 336 h"}, "PC-3 [11]": {"tested_on": "PC-3", "assay": "Induction of apoptosis in human PC-3 cells assessed as early apoptotic cells at 100 nM measured after 72 hrs by Annexin V-FITC/propidium iodide staining based flow cytometry method (reference value: 0.452 %)", "format": "functional"}, "PC-3 [12]": {"tested_on": "PC-3", "assay": "Induction of apoptosis in human PC-3 cells assessed as late apoptotic cells at 25 nM measured after 72 hrs by Annexin V-FITC/propidium iodide staining based flow cytometry method (reference value: 1.01 %)", "format": "functional"}, "DU-145 [13]": {"tested_on": "DU-145", "assay": "Antiproliferative activity against human DU-145 cells assessed as inhibition of cell proliferation at 0.156 to 20 uM by MTT assay", "format": "functional, cell-based", "details": "dose 0.156-20 µM, time 24-72 hrs, TDE = time-dependent effect"}, "[14]": {"assay": "Toxicity in C57BL/6 mouse assessed as effect on lung at 2 mg/kg, IG measured after 2 weeks by hematoxylin and eosin staining based imaging analysis", "format": "organism-based", "details": "in vivo, po, 336 h"}, "DU-145 [15]": {"tested_on": "DU-145", "assay": "Induction of ROS generation in human DU-145 cells assessed as intracellular ROS level at 6 uM measured after 48 hrs by DCFH-DA staining based flowcytometry method (reference value: 52 %)", "format": "functional"}, "DU-145 [16]": {"tested_on": "DU-145", "assay": "Antiproliferative activity against human DU-145 cells assessed as inhibition of cell proliferation measured after 24 to 72 hrs by MTT assay", "format": "functional, cell-based", "details": "dose 0.156-20 µM, time 24-72 hrs"}, "PC-3 [17]": {"tested_on": "PC-3", "assay": "Cytotoxicity against human PC-3 cells assessed as cell viability pre-treated with SB203580 for 4 hrs followed by compound treatment and measured after 72 hrs by MTT assay", "format": "functional, cell-based"}, "DU-145 [18]": {"tested_on": "DU-145", "assay": "Induction of apoptosis in human DU-145 cells assessed as increase in PARP at 0.5 to 2 uM measured by Western blot assay", "format": "functional, cell-based", "details": "dose 0.5-2 µM"}, "DU-145 [19]": {"tested_on": "DU-145", "assay": "Induction of apoptosis in human DU-145 cells assessed as early apoptotic cells at 2 uM measured after 72 hrs by Annexin V-FITC/propidium iodide staining based flow cytometry method (reference value: 0.835 %)", "format": "functional"}, "PC-3 [20]": {"tested_on": "PC-3", "assay": "Antiproliferative activity against human PC-3 cells assessed as inhibition of cell proliferation measured after 24 to 72 hrs by MTT assay", "format": "functional, cell-based", "details": "dose 0.156-20 µM, time 24-72 hrs"}, "PC-3 [21]": {"tested_on": "PC-3", "assay": "Cell cycle arrest in human PC-3 cells assessed as accumulation of cells in G1/S phase by measuring upregulation of p27 measured after 48 hrs by Western blot assay", "format": "functional, cell-based", "details": "dose 125-500 nM"}, "PC-3 [22]": {"tested_on": "PC-3", "assay": "Antiproliferative activity against human PC-3 cells assessed as inhibition of cell proliferation in presence of Fe3+ measured after 72 hrs by MTT assay", "format": "functional, cell-based"}, "DU-145 [23]": {"tested_on": "DU-145", "assay": "Induction of apoptosis in human DU-145 cells assessed as late apoptotic cells at 0.5 uM measured after 72 hrs by Annexin V-FITC/propidium iodide staining based flow cytometry method (reference value: 1.77 %)", "format": "functional"}, "[24]": {"assay": "Toxicity in C57BL/6 mouse assessed as effect on kidney at 2 mg/kg, IG measured after 2 weeks by hematoxylin and eosin staining based imaging analysis", "format": "organism-based", "details": "in vivo, po, 336 h"}, "PC-3 [25]": {"tested_on": "PC-3", "assay": "Induction of cell cycle arrest in human PC-3 cells assessed as accumulation of cells in G1/S phase at 250 nM measured after 48 hrs by propidium iodide staining based flowcytometry method (reference value: 19.23%)", "format": "functional"}, "PC-3 [26]": {"tested_on": "PC-3", "assay": "Activation of MAPK signaling in human PC-3 cells assessed as increase in phosphorylated ERK 1/2 (Thr 202/Tyr 204) at 125 to 500 nM measured by Western blot assay", "format": "cell-based", "details": "filed as activator, dose 125-500 nM"}, "PC-3 [27]": {"tested_on": "PC-3", "assay": "Induction of cell cycle arrest in human PC-3 cells assessed as accumulation of cells in G1/S phase at 500 nM measured after 48 hrs by propidium iodide staining based flowcytometry method (reference value: 19.23%)", "format": "functional"}, "PC-3 [28]": {"tested_on": "PC-3", "assay": "Antitumour activity against human PC-3 cells xenografted in BALB/c-NU mouse assessed as reduction in tumour growth at 25 mg/kg, IG qd measured after 21 days relative to control", "format": "functional", "set-up": "scale not given: the % may be the effect or the level left", "details": "time 21 day"}, "DU-145 [29]": {"tested_on": "DU-145", "assay": "Induction of ROS generation in human DU-145 cells assessed as increase in intracellular ROS level at 250 nM pretreated with NAC followed by compound treatment measured after 48 hrs by DCFH-DA staining based flowcytometry method", "format": "functional, cell-based"}, "DU-145 [30]": {"tested_on": "DU-145", "assay": "Induction of apoptosis in human DU-145 cells assessed as early apoptotic cells at 1 uM measured after 72 hrs by Annexin V-FITC/propidium iodide staining based flow cytometry method (reference value: 0.835 %)", "format": "functional"}, "MGC-803": {"tested_on": "MGC-803", "assay": "Antiproliferative activity against human MGC-803 cell line cells assessed as inhibition of cell proliferation measured after 72 hrs by MTT assay", "format": "functional, cell-based", "details": "MGC-803, 72 h"}, "DU-145 [31]": {"tested_on": "DU-145", "assay": "Activation of MAPK signaling in human DU-145 cells assessed as increase in phosphorylated ERK 1/2 (Thr 202/Tyr 204) at 125 to 500 nM measured by Western blot assay", "format": "cell-based", "details": "filed as activator, dose 125-500 nM"}, "DU-145 [32]": {"tested_on": "DU-145", "assay": "Induction of apoptosis in human DU-145 cells assessed as reduction in Bcl-2 expression at 0.5 to 2 uM measured by Western blot assay", "format": "functional, cell-based", "details": "dose 0.5-2 µM"}, "DU-145 [33]": {"tested_on": "DU-145", "assay": "Induction of apoptosis in human DU-145 cells assessed as viable cells at 1 uM measured after 72 hrs by Annexin V-FITC/propidium iodide staining based flow cytometry method (reference value: 96.3 %)", "format": "functional", "details": "read-out: Activity"}}, "note": "Activity calls are given as the source filed them. No cut-off for these calls is given here."}
{"compound": "Cc1ccc(/C=N/NC(=S)Nc2ccc(C(=O)NCCc3c(C)[nH]c4ccccc34)cc2)nc1", "values": [{"measurement": "Activity", "setting": "PC-3 [1]", "result": "Dose-dependent effect"}, {"measurement": "IC50", "setting": "PC-3 [2]", "result": 54, "unit": "nM"}, {"measurement": "Activity", "setting": "PC-3 [3]", "result": "Active"}, {"measurement": "Activity", "setting": "PC-3 [4]", "result": 53.6, "unit": "%"}, {"measurement": "viability at 0.025 µM", "setting": "PC-3 [5]", "result": 98.5, "unit": "%"}, {"measurement": "Activity", "setting": "PC-3 [6]", "result": "inactive"}, {"measurement": "Activity", "setting": "DU-145 [7]", "result": "Active"}, {"measurement": "inhibition", "setting": "DU-145 [8]", "result": "Active"}, {"measurement": "Activity", "setting": "PC-3 [9]", "result": 9.14, "unit": "%"}, {"measurement": "Activity", "setting": "[10]", "result": "Non-Toxic"}, {"measurement": "Activity", "setting": "PC-3 [11]", "result": 5.76, "unit": "%"}, {"measurement": "Activity", "setting": "PC-3 [12]", "result": 4.36, "unit": "%"}, {"measurement": "Activity", "setting": "DU-145 [13]", "result": "Tde"}, {"measurement": "Activity", "setting": "[14]", "result": "Non-Toxic"}, {"measurement": "Activity", "setting": "DU-145 [15]", "result": 86.2, "unit": "%"}, {"measurement": "inhibition", "setting": "DU-145 [16]", "result": "Dose-dependent effect"}, {"measurement": "inhibition", "setting": "PC-3 [17]", "result": "inactive"}, {"measurement": "Activity", "setting": "DU-145 [18]", "result": "Active"}, {"measurement": "Activity", "setting": "DU-145 [19]", "result": 10.5, "unit": "%"}, {"measurement": "inhibition", "setting": "PC-3 [20]", "result": "Dose-dependent effect"}, {"measurement": "Activity", "setting": "PC-3 [21]", "result": "Active"}, {"measurement": "inhibition", "setting": "PC-3 [22]", "result": "Active"}, {"measurement": "Activity", "setting": "DU-145 [23]", "result": 3.78, "unit": "%"}, {"measurement": "Activity", "setting": "[24]", "result": "Non-Toxic"}, {"measurement": "Activity", "setting": "PC-3 [25]", "result": 29.04, "unit": "%"}, {"measurement": "Activity", "setting": "PC-3 [26]", "result": "Active"}, {"measurement": "Activity", "setting": "PC-3 [27]", "result": 49.02, "unit": "%"}, {"measurement": "Activity", "setting": "PC-3 [28]", "result": 43.4, "unit": "%"}, {"measurement": "Activity", "setting": "DU-145 [29]", "result": "inactive"}, {"measurement": "Activity", "setting": "DU-145 [30]", "result": 10.6, "unit": "%"}, {"measurement": "IC50", "setting": "MGC-803", "result": 4720, "unit": "nM"}, {"measurement": "Activity", "setting": "DU-145 [31]", "result": "Active"}, {"measurement": "Activity", "setting": "DU-145 [32]", "result": "Active"}, {"measurement": "viability at 1 µM", "setting": "DU-145 [33]", "result": 62.1, "unit": "%"}]}
